# Measured values published in patent US20250204515A1, “Heparanase Inhibition for Graft Protection” (University of Pittsburgh - Of the Commonwealth System of …, priority 2022, published 2025).
# What was measured:
# [1] = tested on: syndecan-1, glycosaminoglycans (GAGs); test: Glycocalyx components in lung grafts 2 h after transplantation (western blot, DMMB); assay type: in vivo, rat; conditions: vs control; for GAGs remaining in the lung tissue: DMMB assay, 2 h after transplant; for syndecan-1 protein expression in the plasma membrane: western blot, 2 h after transplantation
# Description: Western blotting. Whole cell lysate was isolated with 2% SDS buffer (2% SDS, 50 mM Tris-HCl pH 6.8, 10% glycerol) supplemented with protease inhibitors (Sigma-Aldrich). Membrane protein fractions were obtained with the Mem-PER Plus Membrane Protein Extraction Kit (Thermo Scientific) following manufacturer's instructions. Proteins were resolved on 10% SDS-PAGE followed by transfer to 0.2 μm nitrocellulose membranes (Bio-Rad Laboratories, Hercules, CA, USA). Membranes were blocked with 5% non-fat milk at room temperature for 2 h and then incubated with the following primary antibodies at 4° C. overnight: anti-syndecan-1 (1:1000; Santa Cruz Biotechnology, Inc., Dallas, Tx, USA), anti-heparanase-1 (1:1000; Boster Biological, Pleasanton, CA, USA), anti-VE-Cadherin (1:1000; Abcam), anti-HSP90 (1:1000; Abcam) and anti-@-actin (1:50,000; Sigma-Aldrich). Membranes were then incubated with either anti-mouse (1:5000) or anti-rabbit (1:3000) horse-radish peroxidase (HRP)-conjugated polyclonal secondary antibody (Abcam, Cambridge, MA, USA), or IRDye 800CW anti-rabbit IgG or 680CW anti-mice secondary antibody (LI-COR Biosciences, Lincoln, NE, USA) at room temperature for 2 h. Proteins were visualized using an enhanced chemiluminescence kit (Abcam), and protein bands were imaged and analyzed using Image Lab software (Version 6.0; Bio-Rad Laboratories, Inc.) or Odyssey 9120 Infrared Imaging System (LI-COR Biosciences).
# Determination of glycocalyx components in rat lung grafts. For rat lung tissue, syndecan-1 released into the perfusate during EVLP was measured with a rat-specific ELISA (Immunotag Rat SDC1 (Syndecan-1) ELISA, G-Biosciences, St. Louis, MO). Glycocalyx glycosaminoglycans (GAGs) were quantitated using the 1,9-dimethylmethylene blue (DMMB, Millipore Sigma) method with modifications. A 1 L solution of DMMB (pH˜3.0) was prepared by dissolving 16 mg DMMB in distilled H2O containing 3.04 g/A glycine, 1.6 g/A NaCl and 95 ml 0.1 M acetic acid. Briefly, 1 ml DMMB solution was added to 20 μl lung tissue lysate then incubated at room temperature for 1 h on a tube rotator. The tubes were then centrifuged at 14,000 rpm for 15 min at 4° C. Supernatants were carefully decanted, 200 μL sodium lauryl sulfate buffer (2.08 mM) was added to each pellet, and the tubes were vortexed until GAG-DMMB pellets were no longer visible. GAG content in each sample was measured spectrophotometrically at 656 nm.
# MMP-2 = test: Gelatin zymography of EVLP perfusate, donor-pretreated lungs; assay type: in vivo, rat; conditions: donor pre-treatment, vs control
# Description: Gelatin zymography. Gelatin zymography was performed to measure secreted MMP-2 and MMP-9 activity in EVLP perfusate and to measure endogenous MMP-2 and 9 activity in lung tissue before transplantation. Briefly, lung tissue before transplant was homogenized in cold PBS. Perfusate samples (20 μl) or tissue lysates were mixed with 2× non-reducing SDS sample buffer were loaded onto a 10% polyacrylamide gel containing 0.1% SDS and 0.1% gelatin. After electrophoresis to separate the proteins, the gel was washed in renaturing buffer (Novex Invitrogen) at room temperature, and then incubated in developing buffer (Novex Invitrogen) at 37° C. overnight (˜16-18 h). The next day, the gel was stained with Coomassie Brilliant Blue R-250 (Bio-Rad) and imaged (ChemiDoc, Bio-Rad). Enzyme activity, visualized as clear bands against the dark blue background, was quantified using Image-J (NIH).
# rat lung grafts = test: Rat orthotopic left lung transplantation of donor-pretreated lungs: graft function, edema, histology, cell infiltration; assay type: in vivo; conditions: for T-cell (CD3+) infiltration / macrophage (CD68+) infiltration / polymorphonuclear neutrophil (PMN) infiltration: 2 h after reperfusion; for T-cell (CD3+) infiltration / macrophage (CD68+) infiltration / wet-to-dry (W/D) ratio / polymorphonuclear neutrophil (PMN) infiltration: vs control; for congestion, swollen alveolar walls, secretions in the airways (H&E) / wet-to-dry (W/D) ratio / PaO2/FiO2 (P/F) ratio: 2 h after transplantation, donor pre-treatment; for PaO2/FiO2 (P/F) ratio: vs control lung grafts; for polymorphonuclear neutrophil (PMN) infiltration: naphthol staining
# Description: Study design. To investigate the stability of eGC in lung grafts and its potential influence on graft function and quality after reperfusion, we established rat models with damaged or preserved lung eGC and performed orthotopic, single, left-lung transplantation or EVLP using the lungs from these rats. Animals were randomly assigned 4 different groups; (1) native lungs (normal control), (2) Control: lungs with eGC damage, (3) Heparin: lungs with eGC preserved by heparin, and (4) NAH: lungs with eGC preserved by NAH. Shedding of the eGC was induced in vivo by donor systemic ischemia. After 1 h of ischemia in vivo, lungs were procured in a standardized fashion for lung transplantation then either directly transplanted or subjected to EVLP and assessed biologically. Native lungs were not subjected to any insult.
# Models of lungs with damaged or preserved eGC and rat orthotopic left lung transplantation. Rats were sedated with 4% isoflurane via inhalation for tracheostomy and then placed on a ventilator. They received 5% isoflurane with 100% O2 via inhalation through the ventilator for 15 min to induce a deep state of anesthesia that causes arrest of spontaneous breathing. The rats were disconnected from the ventilator 5 min after intravenous administration of heparin (300 IU), a heparin derivative without anti-coagulant properties (300 μg; N-acetyl heparin (NAH) (Millipore Sigma, Burlington, MA)), or saline (300 μl, control) through the jugular vein. Cardiac activity and blood oxygen saturation were monitored after disconnection from ventilator until cardiac arrest. One hour after induction of ischemia, a median thoracotomy was performed, and blood was flushed from the lungs with cold, low potassium dextran solution (PERFADEX; XVIVO Perfusion AB) through the pulmonary artery. Then, the heart-lung bloc was isolated and stored in cold PERFADEX for 6 h before transplantation.
# Orthotopic single-lung transplantation of the left lung was performed using the cuff method. Two hours after reperfusion, the naive lung was clamped, 100% 02 was administered for 5 min through a ventilator, and the recipient's blood was sampled from the graft pulmonary vein for blood gas analysis.
# Wet-to-dry (W/D) weight ratio. The weight of the lung tissues was measured immediately after collection (wet weight). The lung tissue was then placed into a 60° C. oven to dry for 72 h. Tissues were weighed to deter-mine the dry weight, and the wet-to-dry ratio was calculated.
# Tissue staining and histopathological analysis. Formalin-fixed, paraffin-embedded lung tissues collected 2 h after transplantation were sectioned to 4-μm thickness and stained with hematoxylin and eosin. The sections were also stained for immunofluorescent imaging using primary antibodies for CD3 (Invitrogen), CD68 (Invitrogen), or syndecan-1 (Santa Cruz), and Hoechst 33342 dye for nuclear staining. Primary antibody was detected by secondarily Cy5-conjugated goat anti-rabbit IgG (Invitrogen) and Cy3-conjugated goat anti-mouse IgG (Millipore Sigma).
# Polymorphonuclear neutrophils (PMNs) were stained using a naphthol AS-D chloroacetate esterase staining kit (Millipore Sigma) and identified by nuclear morphology staining in bright red. Stained slides were scanned with a whole-slide image scanner (Axio Scan.Z1; Carl Zeiss) and analyzed with digital image processing software (ZEN lite blue edition; Carl Zeiss). Stained cells were counted by two investigators with the identity of the samples masked.
Substance,GAGs remaining in the lung tissue [1],syndecan-1 protein expression in the plasma membrane [1],MMP-2 activity in EVLP perfusate (MMP-2),T-cell (CD3+) infiltration (rat lung grafts),macrophage (CD68+) infiltration (rat lung grafts),"congestion, swollen alveolar walls, secretions in the airways (H&E) (rat lung grafts)",wet-to-dry (W/D) ratio (rat lung grafts),PaO2/FiO2 (P/F) ratio (rat lung grafts),polymorphonuclear neutrophil (PMN) infiltration (rat lung grafts)
heparin,significantly more GAGs remained,markedly higher,significantly less,significantly reduced,significantly reduced,not observed,lower,significantly higher,significantly reduced
N-acetyl heparin [NAH],significantly more GAGs remained,markedly higher,significantly less,significantly reduced,significantly reduced,not observed,lower,significantly higher,significantly reduced
